From patent US20150105252A1, “SUBSTITUTED PYRAZOLES AS HERBICIDES” (E I DU PONT DE NEMOURS AND COMPANY, priority 2013, published 2015)

Experiments:
barnyardgrass [1] = assay: Test A preemergence; format: in vivo, Echinochloa crus-galli; settings: 0 to 100 scale
Method in brief: (§1)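 Visual injury ratings, 0 = no effect to 100 = complete control, taken about 10 days after treatment against untreated controls. Test chemicals, in a non-phytotoxic surfactant-containing solvent, were sprayed onto soil preemergence or onto one- to two-leaf plants (2–10 cm) postemergence, in loam–sand soil under greenhouse conditions.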

crabgrass, large [2] = assay: Test A preemergence; format: in vivo, Digitaria sanguinalis; settings: 0 to 100 scale
Method in brief: as §1

foxtail, giant [3] = assay: Test A preemergence; format: in vivo, Setaria faberii; settings: 0 to 100 scale
Method in brief: as §1

morningglory [4] = assay: Test A preemergence; format: in vivo, Ipomoea spp.; settings: 0 to 100 scale
Method in brief: as §1

pigweed [5] = assay: Test A preemergence; format: in vivo, Amaranthus retroflexus; settings: 0 to 100 scale
Method in brief: as §1

velvetleaf [6] = assay: Test A preemergence; format: in vivo, Abutilon theophrasti; settings: 0 to 100 scale
Method in brief: as §1

wheat [7] = assay: Test A preemergence; format: in vivo, Triticum aestivum
Method in brief: as §1

corn [8] = assay: Test A preemergence; format: in vivo, Zea mays; settings: 0 to 100 scale
Method in brief: as §1

barnyardgrass [9] = assay: Test A postemergence; format: in vivo, Echinochloa crus-galli; settings: Postemergence
Method in brief: as §1

crabgrass, large [10] = assay: Test A postemergence; format: in vivo, Digitaria sanguinalis
Method in brief: as §1

foxtail, giant [11] = assay: Test A postemergence; format: in vivo, Setaria faberii
Method in brief: as §1

morningglory [12] = assay: Test A postemergence; format: in vivo, Ipomoea spp.
Method in brief: as §1

pigweed [13] = assay: Test A postemergence; format: in vivo, Amaranthus retroflexus
Method in brief: as §1

velvetleaf [14] = assay: Test A postemergence; format: in vivo, Abutilon theophrasti
Method in brief: as §1

wheat [15] = assay: Test A postemergence; format: in vivo, Triticum aestivum
Method in brief: as §1

corn [16] = assay: Test A postemergence; format: in vivo, Zea mays
Method in brief: as §1

rice = assay: Test C flooded paddy test; format: in vivo, Oryza sativa; settings: Flood
Source text: (§2) At time of treatment, test pots were flooded to 3 cm above the soil surface, treated by application of test compounds directly to the paddy water, and then maintained at that water depth for the duration of the test. Treated plants and controls were maintained in a greenhouse for 13 to 15 days, after which time all species were compared to controls and visually evaluated. […] A dash (-) response means no test result.

sedge, umbrella = assay: Test C flooded paddy test; format: in vivo, Cyperus difformis; settings: Flood
Source text: as §2

ducksalad = assay: Test C flooded paddy test; format: in vivo, Heteranthera limosa; settings: Flood
Source text: as §2

barnyardgrass [17] = assay: Test C flooded paddy test; format: in vivo, Echinochloa crus-galli; settings: Flood
Source text: as §2

[18] = Preemergence, 1000 g ai/ha, 0 no effect, 100 complete control
[19] = Postemergence, 1000 g ai/ha, visual rating after approx. 10 days, 0 to 100 scale (0 no effect, 100 complete control)
[20] = 31 g ai/ha, scale 0 to 100 (0 no effect, 100 complete control)
[21] = 62 g ai/ha, scale 0 to 100 (0 no effect, 100 complete control)
[22] = Preemergence, 500 g ai/ha, 0 no effect, 100 complete control
[23] = preemergence, 125 g ai/ha, visual injury, approx. 10 days
[24] = Postemergence, 500 g ai/ha, visual rating after approx. 10 days, 0 to 100 scale (0 no effect, 100 complete control)
[25] = postemergence, 125 g ai/ha, about 10 days, visual rating on 0 to 100 scale (0 no effect, 100 complete control)

CCCc1cc(C(=O)NCC)nn1Cc1cccc(C(F)(F)F)c1 [Compound 29]
Barnyardgrass plant response rating (barnyardgrass [1]; [18]): 50
Crabgrass, Large plant response rating (crabgrass, large [2]; [18]): 100
Foxtail, Giant plant response rating (foxtail, giant [3]; [18]): 80
Morningglory plant response rating (morningglory [4]; [18]): 60
Pigweed plant response rating (pigweed [5]; [18]): 90
Velvetleaf plant response rating (velvetleaf [6]; [18]): 40
Wheat plant response rating (wheat [7]; Preemergence, 1000 g ai/ha, 0 to 100 scale, 0 no effect, 100 complete control): 10
Corn plant response rating (corn [8]; [18]): 0
Barnyardgrass plant response rating (barnyardgrass [9]; 1000 g ai/ha, visual rating after approx. 10 days, 0 to 100 scale (0 no effect, 100 complete control)): 80
Crabgrass, Large plant response rating (crabgrass, large [10]; [19]): 70
Foxtail, Giant plant response rating (foxtail, giant [11]; [19]): 90
Morningglory plant response rating (morningglory [12]; [19]): 90
Pigweed plant response rating (pigweed [13]; [19]): 100
Velvetleaf plant response rating (velvetleaf [14]; [19]): 100
Wheat plant response rating (wheat [15]; [19]): 40
Corn plant response rating (corn [16]; [19]): 50
Plant response rating, Rice (rice; [20]): 0
Plant response rating, Rice (rice; [21]): 0
Plant response rating, Rice (rice; 125 g ai/ha, scale 0 to 100): 0
Plant response rating, Rice (rice; 250 g ai/ha, scale 0 to 100): 0
Plant response rating, Sedge, Umbrella (sedge, umbrella; [20]): 0
Plant response rating, Sedge, Umbrella (sedge, umbrella; [21]): 0
Plant response rating, Sedge, Umbrella (sedge, umbrella; 125 g ai/ha, scale 0 to 100): 75
Plant response rating, Sedge, Umbrella (sedge, umbrella; 250 g ai/ha, scale 0 to 100): 80
Plant response rating, Ducksalad (ducksalad; [20]): 0
Plant response rating, Ducksalad (ducksalad; [21]): 0
Plant response rating, Ducksalad (ducksalad; 125 g ai/ha, scale 0 to 100): 85
Plant response rating, Ducksalad (ducksalad; 250 g ai/ha, scale 0 to 100): 85
Plant response rating, Barnyardgrass (barnyardgrass [17]; [20]): 0
Plant response rating, Barnyardgrass (barnyardgrass [17]; [21]): 0
Plant response rating, Barnyardgrass (barnyardgrass [17]; 125 g ai/ha, scale 0 to 100): 0
Plant response rating, Barnyardgrass (barnyardgrass [17]; 250 g ai/ha, scale 0 to 100): 20

CCONC(=O)c1cc(C)n(Cc2cccc(OC(F)(F)F)c2)n1 [Compound 73]
Barnyardgrass plant response rating (barnyardgrass [1]; [22]): 60
Barnyardgrass plant response rating (barnyardgrass [1]; [23]): 50
Crabgrass, Large plant response rating (crabgrass, large [2]; [22]): 50
Crabgrass, Large plant response rating (crabgrass, large [2]; [23]): 30
Foxtail, Giant plant response rating (foxtail, giant [3]; [22]): 60
Foxtail, Giant plant response rating (foxtail, giant [3]; [23]): 30
Morningglory plant response rating (morningglory [4]; [22]): 30
Morningglory plant response rating (morningglory [4]; [23]): 10
Pigweed plant response rating (pigweed [5]; [22]): 100
Pigweed plant response rating (pigweed [5]; [23]): 90
Velvetleaf plant response rating (velvetleaf [6]; [22]): 60
Velvetleaf plant response rating (velvetleaf [6]; [23]): 10
Wheat plant response rating (wheat [7]; preemergence, 125 g ai/ha, visual injury, 0 to 100 scale, approx. 10 days): 0
Wheat plant response rating (wheat [7]; preemergence, 500 g ai/ha, visual injury after approx. 10 days, 0 to 100 scale (0 no effect, 100 complete control)): 80
Corn plant response rating (corn [8]; [22]): 50
Corn plant response rating (corn [8]; [23]): 30
Barnyardgrass plant response rating (barnyardgrass [9]; 125 g ai/ha, 0 to 100 scale, 0 no effect, 100 complete control): 40
Barnyardgrass plant response rating (barnyardgrass [9]; 500 g ai/ha, visual rating after approx. 10 days, 0 to 100 scale (0 no effect, 100 complete control)): 70
Crabgrass, Large plant response rating (crabgrass, large [10]; [24]): 60
Crabgrass, Large plant response rating (crabgrass, large [10]; [25]): 40
Foxtail, Giant plant response rating (foxtail, giant [11]; [24]): 70
Foxtail, Giant plant response rating (foxtail, giant [11]; [25]): 40
Morningglory plant response rating (morningglory [12]; [24]): 40
Morningglory plant response rating (morningglory [12]; [25]): 30
Pigweed plant response rating (pigweed [13]; [24]): 90
Pigweed plant response rating (pigweed [13]; [25]): 70
Velvetleaf plant response rating (velvetleaf [14]; [24]): 80
Velvetleaf plant response rating (velvetleaf [14]; [25]): 30
Wheat plant response rating (wheat [15]; [24]): 40
Wheat plant response rating (wheat [15]; [25]): 0
Corn plant response rating (corn [16]; [24]): 80
Corn plant response rating (corn [16]; [25]): 40
Plant response rating, Rice (rice; [20]): 0
Plant response rating, Rice (rice; [21]): 0
Plant response rating, Rice (rice; 125 g ai/ha, scale 0 to 100): 0
Plant response rating, Rice (rice; 250 g ai/ha, scale 0 to 100): 0
Plant response rating, Sedge, Umbrella (sedge, umbrella; [20]): 0
Plant response rating, Sedge, Umbrella (sedge, umbrella; [21]): 0
Plant response rating, Sedge, Umbrella (sedge, umbrella; 125 g ai/ha, scale 0 to 100): 0
Plant response rating, Sedge, Umbrella (sedge, umbrella; 250 g ai/ha, scale 0 to 100): 30
Plant response rating, Ducksalad (ducksalad; [20]): 0
Plant response rating, Ducksalad (ducksalad; [21]): 20
Plant response rating, Ducksalad (ducksalad; 125 g ai/ha, scale 0 to 100): 45
Plant response rating, Ducksalad (ducksalad; 250 g ai/ha, scale 0 to 100): 55
Plant response rating, Barnyardgrass (barnyardgrass [17]; [20]): 0
Plant response rating, Barnyardgrass (barnyardgrass [17]; [21]): 0
Plant response rating, Barnyardgrass (barnyardgrass [17]; 125 g ai/ha, scale 0 to 100): 0
Plant response rating, Barnyardgrass (barnyardgrass [17]; 250 g ai/ha, scale 0 to 100): 0
